Assay results: patent US4533655A, “Analgesic dipeptide amides and method of use and compositions thereof” (Sterling Drug Inc., priority 1982, dated 1985)

What was measured:
[1] = test system: guinea pig ileum longitudinal muscle (electrically induced twitch); assay: Guinea pig ileum test; assay type: cell-based; conditions: ratio of IC50 of reference Met^5-enkephalin to IC50 of test compound in same preparation, averaged (N=4); Met^5-enkephalin = 100
Procedure: Adult male guinea pigs (Charles River, Hartley strain) weighing 300-500 g. are decapitated, and the terminal ileum is exposed by reflecting the overlying cecum, severed at the ileocecal juncture, and removed while cutting the mesenteric attachments to avoid excessive traction on the tissue. The ileum (about 30 cm. in length) is transferred to a beaker containing warm modified Krebs-Henseleit solution (118 mM sodium chloride, 4.75 mM potassium chloride, 2.54 mM calcium chloride, 1.19 mM potassium dihydrogen phosphate, 1.2 mM magnesium sulfate, 25 mM sodium bicarbonate, 11 mM glucose, 20 μM choline chloride and 0.125 μM pyrilamine maleate). The terminal (aboral) portion (about 10 cm. in length) is discarded, and segments (3-4 cm. in length) are cut from the remainder and gently slid onto a glass rod (5-6 mm. in diameter) and arranged so that the mesenteric attachment is in a straight line. A cotton swab moistened in the solution is then carefully used to separate the longitudinal muscle from the underlying circular muscle. The longitudinal muscle and adhering myenteric plexus is then gently removed from the remaining tissue with forceps.
Strips of this prepared longitudinal muscle are mounted in a double-jacketed organ bath (5 ml.) under tension (1.0 g.), connected to isometric transducers (Grass FT 0.03), bathed in the modified Krebs-Henseleit solution described above, aerated with oxygen-carbon dioxide (95:5) and maintained at 37° C.
Stimulators (Grass S-44) are set to deliver repetitive monophasic square wave field stimulation (supramaximal voltage, 0.10 Hz., 0.25 msec. duration) through platinum ring electrodes at the top and bottom of the bath. Regular contractions of the muscle, which result from electrically-induced liberation of acetylcholine from postganglionic parasympathetic nerves, are recorded on a polygraph (Grass model 5). Following tissue equilibration (45-60 min.) and repeated washing (every 10 min.) an aqueous solution of a reference or test compound is added to the bath in a microliter volume (1.25-250 μl) and reductions in muscle twitch height are recorded. More compound can be added […] first washing the preparation.
From the results a half-mazimal inhibitory concentration (IC50) value for the compound is computed by regression analysis of a linear plot of logarithm of concentration against percent of inhibition of twitch height (probits). The ratio of the IC50 value of a reference compound to that of a test compound tested in the same preparation is the molar potency ratio. Usually four preparations are tested simultaneously by the same person (N=4), and the resulting four molar potency ratios are averaged.
The following results were obtained using the examples as test compounds and Met^5 -enkephalin as the reference compound.

Male Swiss-Webster mice = assay: Mouse acetylcholine writhing test; assay type: in vivo; conditions: 20 min, subcutaneous, acetylcholine 3.2 mg./kg. i.p. 20 min after dosing, 95% confidence limits in parentheses
Procedure: Male Swiss-Webster mice each weighing 18-24 g. are treated subcutaneously (10 ml./kg. injection volume) or orally with the test compound in an aqueous vehicle. Twenty minutes thereafter each mouse is injected intraperitoneally with acetylcholine (3.2 mg./kg.) in aqueous sodium chloride (0.9%). This dose of acetylcholine causes one or more characteristic writhes in the two minute period following injection in control mice which receive the aqueous vehicle not containing the test compound. […] Test compounds are screened at doses of 100 and 30 mg./kg. subcutaneously and 300 and 100 mg./kg. orally using 15 mice at each dose level. ED50 values for active compounds are estimated by probit analysis of quantal scores at four or more dose levels using 15 mice at each dose level.

rat = rat tail flick, relative to morphine, cited from earlier work
guinea pig ileum = conditions: cited from earlier work
mouse vas deferens = conditions: cited from earlier work

| Compound | Average Molar Potency Ratio [1] | ED50 (Male Swiss-Webster mice) | also measured |
| --- | --- | --- | --- |
| C[C@H](C(=O)NCCCc1ccccc1)N(C)C(=O)[C@@H](N)Cc1ccc(O)cc1 [Example 1, L-tyrosyl-N^2-methyl-N-(3-phenylpropyl)-D-alaninamide] | 293 | 5.5 mg/kg |  |
| CN[C@@H](Cc1ccc(O)cc1)C(=O)N[C@H](C)C(=O)NCCCc1ccccc1 [Example 2, N-methyl-L-tyrosyl-N-(3-phenylpropyl)-D-alaninamide] | 194 | 10 to 30 mg/kg |  |
| CN[C@@H](Cc1ccc(O)cc1)C(=O)N(C)[C@H](C)C(=O)NCCCc1ccccc1 [Example 3, N-methyl-L-tyrosyl-N^2-methyl-N-(3-phenylpropyl)-D-alaninamide] | 200 | 9.4 mg/kg |  |
| CCN(C(=O)[C@@H](N)Cc1ccc(O)cc1)[C@H](C)C(=O)NCCCc1ccccc1 [Example 4, L-tyrosyl-N^2-ethyl-N-(3-phenylpropyl)-D-alaninamide] | 12 |  |  |
| C[C@H](C(=O)NCCCc1ccc(Cl)cc1)N(C)C(=O)[C@@H](N)Cc1ccc(O)cc1 [Example 5, L-tyrosyl-N^2-methyl-N-[3-(4-chlorophenyl)propyl]-D-alaninamide] | 51 |  |  |
| C[C@H](C(=O)NCCCc1ccc(C(F)(F)F)cc1)N(C)C(=O)[C@@H](N)Cc1ccc(O)cc1 [Example 6, L-tyrosyl-N^2-methyl-N-[3-(4-trifluoromethylphenyl)propyl]-D-alaninamide] | 13 |  |  |
| C[C@H](C(=O)NCCCc1ccc(F)cc1)N(C)C(=O)[C@@H](N)Cc1ccc(O)cc1 [Example 7, L-tyrosyl-N^2-methyl-N-[3-(4-fluorophenyl)propyl]-D-alaninamide] | 178 |  |  |
| C[C@@H](NC(=O)[C@@H](N)Cc1ccc(O)cc1)C(N)=O [H-Tyr-D-Ala-NH2] |  |  | times less potent than morphine, intravenously (rat; intravenous): greater than 10 times; times less potent than morphine, intraventricularly (rat; intraventricular): 200 times |
| C[C@@H](NC(=O)[C@@H](N)Cc1ccc(O)cc1)C(=O)NCCNCCc1ccccc1 [HTyrD-AlaNH(CH2)2 NH(CH2)2 Phenyl] |  |  | potency relative to Met-enkephaline (guinea pig ileum): < 1%; potency relative to Met-enkephaline (mouse vas deferens): < 1% |
| Met^5 -enkephalin [reference compound] | 100 |  |  |
